Source: patent publication US11123357B2, “Methods and compositions for treating oral mucositis” (Lakewood Amedex, Inc., priority 2018, dated 2021)

How the values were obtained:
[1] = Mean daily percent body weight change in irradiated hamsters; type: in vivo, Syrian Golden Hamsters; settings: Group 3 (10% Nu-8, TID topical); p<0.05
From the text: The mean daily percent body weight change data are shown in FIG. 2 for animals in all groups. Animals steadily gained weight throughout the duration of the study.

[2] = test system: oral mucositis induced by acute radiation; test: Oral mucositis induced by acute radiation in hamsters (blinded mucositis scoring); type: in vivo, Syrian Golden Hamsters; parameters: key to peak mean mucositis score: 0 = normal, 5 = severe ulceration (photographic scale); settings: for % Days ≥ 3 / Days < 3 (animal days with mucositis score <3) / Days ≥ 3 (animal days with mucositis score ≥3): through Day 28
From the text: The objective of the study was to test the efficacy of Nu-8 in the treatment of oral mucositis induced by acute radiation in hamsters.
Normal male Syrian Golden Hamsters (Charles River Laboratories), aged 5 to 6 weeks, with average body weight (±SD) of 92.83±3.36 g at study commencement, were used. Animals were individually numbered using an ear punch and housed in small groups. Animals were acclimatized prior to study commencement. During this period, the animals were observed daily in order to reject animals that were in poor condition.
Animals were randomly and prospectively divided into three (3) groups of eight (8) animals each prior to irradiation. Each animal was identified by an ear punch corresponding to an individual number. A cage card was used to identify each cage or label marked with the study number (LKW-01), treatment group number and animal numbers.
Formulation: • 1. Make fresh daily. Weigh out necessary amount of compound and dissolve in normal saline. Titrate with citric acid to bring pH of solution down to approximate 3.5 (pH range 3 to 4). • 2. The vehicle administered to animals in Group 1 was also titrated with citric acid to a pH of ˜3.5 (pH range 3 to 4).
Mucositis was induced using a single of radiation (40 Gy) administered on Day 0. Radiation was generated with a 160-kilovolt potential (18.75-ma) source at a focal distance of 10 cm, hardened with a 3.0 mm Al filtration system. Irradiation targeted the left buccal pouch mucosa at a rate of 2-2.5 Gy/minute. Prior to irradiation, animals were anesthetized with an intraperitoneal injection of ketamine (160 mg/kg) and xylazine (8 mg/kg). The left buccal pouch was everted, fixed and isolated using a lead shield.
Starting on Day 6 and continuing every second day thereafter (Days 8, 10, 12, 14, 16, 18, 20, 22, 24, 26, 28) each animal was photographed and evaluated for mucositis scoring. For the evaluation of mucositis, the animals were anesthetized with an inhalation anesthetic and the left pouch everted. Mucositis was scored visually by comparison to a validated photographic scale (FIGS. 1A-1F), ranging from 0 for normal, to 5 for severe ulceration (clinical scoring). In descriptive terms, this scale is defined as follows: […]
A score of 1-2 is considered to represent a mild stage of the disease, whereas a score of 3-5 is considered to indicate moderate to severe ulcerative mucositis. Following visual clinical scoring, a photograph was taken of each animal's mucosa using a standardized technique. At the conclusion of the experiment, the photographs were randomly numbered and scored by two independent, trained observers who graded the images in blinded fashion using the above-described scale (blinded scoring). For each photograph, the actual blinded score was based on the average of the 2 observers' scores. Only the scores from the blinded, photographic evaluation were reported and used for statistical analyses. Hamsters reaching a mucositis severity score of 4 or higher received buprenorphine (0.5 mg/kg) SC twice a day for 48 hours or until score dropped below 4. Statistical Analyses
Using the blinded photographs, statistical differences between treatment groups were determined using Mann-Whitney Rank Sum test and chi-square analysis with a critical value of 0.05. It was anticipated that up to 10% animal death may occur, primarily as a result of the administration of anesthetics. However, the number of animals expected to remain alive at Day 28 (6 per treatment group) was considered acceptable for statistical evaluation.
The difference in the number of days hamsters in each group have severe mucositis (score ≥3) was analyzed. On each day the animals were scored (evaluation day), the number of animals with a blinded mucositis score of ≥3 in each treatment group was compared to the Vehicle control group. Differences were analyzed on a daily as well as a cumulative basis. […]

## CCCCOP(=O)(O)OC[C@H]1O[C@@H](n2ccc(N)nc2=O)C[C@@H]1OP(=O)(O)OCCCC [Nu-8, ((2R,3S,5R)-5-(4-amino-2-oxopyrimidin-1(2H)-yl)-3-((butoxyoxidophosphor-yl)oxy)tetrahydrofuran-2-yl)methyl butyl phosphate]
[1]
  mean percent weight change vs. vehicle group (AUC analysis, one-way ANOVA): statistically significant lower mean percent weight change
[2]; 1% Nu-8 (Group 2)
  days of significant improvement in mucositis scores vs. Vehicle (Mann-Whitney rank sum): one day of significant improvement
[2]; 1% Nu-8, TID topical
  Chi Sq vs. Vehicle (animal days with score ≥3): 2.094
  % Days ≥ 3: 40.63%
  Days < 3 (animal days with mucositis score <3): 57
  Days ≥ 3 (animal days with mucositis score ≥3): 39
[2]; 1% Nu-8, TID topical, Day 6
  Percent Ulceration by Day (Score ≥ 3): 0.0%
[2]; 1% Nu-8, TID topical, Day 8
  Percent Ulceration by Day (Score ≥ 3): 0.0%
[2]; 1% Nu-8, TID topical, Day 10
  Percent Ulceration by Day (Score ≥ 3): 0.0%
[2]; 1% Nu-8, TID topical, Day 12
  Percent Ulceration by Day (Score ≥ 3): 0.0%
[2]; 1% Nu-8, TID topical, Day 14
  Percent Ulceration by Day (Score ≥ 3): 12.5%
[2]; 1% Nu-8, TID topical, Day 16
  Percent Ulceration by Day (Score ≥ 3): 50.0%
[2]; 1% Nu-8, TID topical, Day 18
  Percent Ulceration by Day (Score ≥ 3): 87.5%
[2]; 1% Nu-8, TID topical, Day 20
  Percent Ulceration by Day (Score ≥ 3): 87.5%
[2]; 1% Nu-8, TID topical, Day 22
  Percent Ulceration by Day (Score ≥ 3): 87.5%
[2]; 1% Nu-8, TID topical, Day 24
  Percent Ulceration by Day (Score ≥ 3): 87.5%
[2]; 1% Nu-8, TID topical, Day 26
  Percent Ulceration by Day (Score ≥ 3): 50.0%
[2]; 1% Nu-8, TID topical, Day 28
  Percent Ulceration by Day (Score ≥ 3): 25.0%
[2]; 1% Nu-8, TID topical, on Day 18
  peak mean mucositis score: 2.88±0.13
[2]; 10% Nu-8 (Group 3)
  days of significant improvement in mucositis scores vs. Vehicle (Mann-Whitney rank sum): multiple days of significant improvement
[2]; 10% Nu-8, TID topical
  Chi Sq vs. Vehicle (animal days with score ≥3): 30.762
  disease severity in comparison to vehicle-dosed animals: robust mitigation of disease severity
  % Days ≥ 3: 11.90%
  Days < 3 (animal days with mucositis score <3): 74
  Days ≥ 3 (animal days with mucositis score ≥3): 10
[2]; 10% Nu-8, TID topical, Day 6
  Percent Ulceration by Day (Score ≥ 3): 0.0%
[2]; 10% Nu-8, TID topical, Day 8
  Percent Ulceration by Day (Score ≥ 3): 0.0%
[2]; 10% Nu-8, TID topical, Day 10
  Percent Ulceration by Day (Score ≥ 3): 0.0%
[2]; 10% Nu-8, TID topical, Day 12
  Percent Ulceration by Day (Score ≥ 3): 0.0%
[2]; 10% Nu-8, TID topical, Day 14
  Percent Ulceration by Day (Score ≥ 3): 12.5%
[2]; 10% Nu-8, TID topical, Day 16
  Percent Ulceration by Day (Score ≥ 3): 25.0%
[2]; 10% Nu-8, TID topical, Day 18
  Percent Ulceration by Day (Score ≥ 3): 25.0%
[2]; 10% Nu-8, TID topical, Day 20
  Percent Ulceration by Day (Score ≥ 3): 25.0%
[2]; 10% Nu-8, TID topical, Day 22
  Percent Ulceration by Day (Score ≥ 3): 25.0%
[2]; 10% Nu-8, TID topical, Day 24
  Percent Ulceration by Day (Score ≥ 3): 12.5%
[2]; 10% Nu-8, TID topical, Day 26
  Percent Ulceration by Day (Score ≥ 3): 0.0%
[2]; 10% Nu-8, TID topical, Day 28
  Percent Ulceration by Day (Score ≥ 3): 0.0%
[2]; 10% Nu-8, TID topical, on Days 16 & 18
  peak mean mucositis score: 2.29±0.18
[2]; 10% Nu-8, chi-square analysis
  percentage of days with a score of ≥3 in comparison to the Vehicle control group: statistically different
[2]; both dose concentrations (1% and 10%), numerous days
  percent ulceration in comparison to vehicle-dosed animal: percent ulceration that was lower in comparison to vehicle-dosed animal
[2]; both groups treated with Nu-8 (1% and 10%), more so with 10%
  disease onset (mean daily mucositis scores): modest attenuation of disease onset
